Drawing on ChEMBL document CHEMBL6071173, “Machine Learning Accelerates Screening of Osteoclast Differentiation Inhibitors from Natural Products” (2024), this text covers inhibition and Activity for 2 molecules.

The subject of assay [1] is RAW 264. Description: Inhibition of RANKL-induced osteoclastogenesis in mouse RAW 264 cells at 1 nM […] by TRAP staining based assay. In kind it is functional, cell-based.
For assay [2], the system named is RAW 264. Kind of assay: Cytotoxicity against mouse RAW 264 cells assessed as reduction in cell viability at upto 160 uM by MTT assay. In kind it is functional, cell-based. On the technique in general: Tetrazolium dyes change colour on reduction, which living cells bring about.
A short description of assay [3]: Inhibition of RANKL-induced osteoclastogenesis in mouse RAW 264 cells at 20 uM […] by TRAP staining based assay relative to control. To be noted: RAW264.7. In kind it is functional.

Active and inactive are the calls of the source. No cut-off for these calls is given here.

Usually inhibition stands for the change of the read-out against control, counted positive when it falls. Take `CC1=C(/C=C/C(C)=C/C=C/C(C)=C/C(=O)O)C(C)(C)CCC1`: the inhibition entry in assay [1] is “Active”.

As to `C/C=C/C=C/C(=O)O[C@H]1CC/C=C/[C@H](O)[C@H](O)[C@@H](CCC)OC1=O` [PINOLIDOXIN], the outcome in assay [2] was inactive. In assay [3], this molecule yielded an inhibition at 20 µM of 57%.
